Results reported in patent US7223718B2, “Enhanced glyphosate herbicidal concentrates” (Falcon Lab LLC, priority 2005, dated 2007).

Assay: Hygroscopicity: exposure to air on a balance for three days
Type: physicochemical
Conditions: exposed to air on a balance
Source text: A mechanical mixture of 10 gm. of dry, solid isopropylammonium glyphosate and 20 gm. of dry, solid ammonium pelargonate was made by thoroughly grinding and mixing the two solids to assure a homogeneous powder. The resulting 30 gm. was exposed to the air in a weighing dish on a balance to determine if the mixture was hygroscopic or dry. […] To this mixture was further added 3 gm. of powdered 85% potassium hydroxide and the solids again thoroughly mixed. This solid mixture contained the equivalent of 30% isopropylammonium glyphosate and 60% ammonium pelargonate, being a solid enhanced glyphosate herbicide concentrate.
A 50 gm. portion of a 53.8% glyphosate solution as the isopropylammonium salt (Monsanto Aquamaster®) was placed in a glass shallow evaporating dish. To this was added 10 gm. of 28-30% ammonium hydroxide and the solution thoroughly mixed by slowly tilting the dish. The dish was then exposed to air at ambient conditions for 2 weeks during which time the water evaporated off leaving a white crystalline solid weighing 38.9 gm. […] By the method it was prepared and the yield obtained it was determined to be the mixed salt ammonium, (isopropylammonium)glyphosate. The melting point was 200-205° C. (isopropyl ammonium glyphosate melts at 155-158° C.) The FT-IR spectrum in KBr is: […]

## ammonium, (isopropylammonium)glyphosate
  Hygroscopicity (weight change on exposure to air): non-hygroscopic
